This note sets out measurements from ChEMBL document CHEMBL3576799, “Aranciamycins I and J, Antimycobacterial Anthracyclines from an Australian Marine-Derived Streptomyces sp” (J Nat Prod, 2015).

In brackets after ≈: the same amount, converted by molar mass.

The assay concerns Mycobacterium tuberculosis. The experiment in a line: Antimycobacterial activity against Mycobacterium bovis BCG. The following applies: variant bovis BCG. The assay is classed as functional, organism-based.
For `C[C@@H]1O[C@@H](O[C@H]2C[C@](C)(O)Cc3cc4c(c(O)c32)C(=O)c2c(O)cccc2C4=O)[C@H](O)[C@H](O)[C@H]1O`, the IC50 (in general, the concentration that inhibits the measured activity by half) stood at 800 nM and 10 µM (≈ 4.86 µg/mL) was the least that counted as inhibitory (MIC).
On the same counts, the results for `CO[C@H]1[C@H](O[C@H]2C[C@](C)(O)C(=O)c3cc4c(c(O)c32)C(=O)c2c(O)cccc2C4=O)O[C@@H](C)[C@H](O)[C@H]1O` are 700 nM and 10 µM (≈ 5.14 µg/mL).
Regarding `CO[C@H]1[C@H](O[C@H]2C[C@](C)(O)Cc3cc4c(c(O)c32)C(=O)c2c(O)cccc2C4=O)O[C@@H](C)[C@H](O)[C@H]1O`, the IC50 turned out to be 1100 nM and inhibition of growth (MIC) required 30 µM (≈ 15 µg/mL).
In the case of `CO[C@H]1[C@H](O[C@@H]2c3c(cc4c(c3O)C(=O)c3c(O)cccc3C4=O)C(=O)[C@@](C)(O)[C@H]2OC)O[C@@H](C)[C@H](O)[C@H]1O` [ARANCIAMYCIN], the IC50 was determined as 1700 nM and the MIC (as a rule, the lowest concentration that inhibits growth of the organism) was determined as 30 µM (≈ 16.3 µg/mL).
